Measurements published in patent publication US7038111B2, “Method for increasing stress tolerance in plants” (The Arizona Board of Regents, priority 2001, dated 2006).

Key:
Type in all cases: in vivo, Arabidopsis thaliana
LOS5/ABA3 gene = experiment: RNA blot analysis of LOS5/ABA3 transcript level; details: wild type seedlings, 100 μM ABA for 4 hr
Procedure: […] For NaCl or PEG treatment, seedlings on MS plates were transferred to filter paper saturated with MS solution supplemented with 300 mM NaCl or 30% of polyethylene glycol (molecular weight 6,000) and incubated for 5 hr. Unless otherwise stated, cold treatment for image analysis and RNA analysis were done by incubating seedlings growing in plates at 0° C. in the dark for 48 hr (for imaging) or 12 hr (for RNA analysis). Because longer treatment at −5 or −10° C. will result in freezing of the agar media, these freezing temperature treatments only lasted for 3 hr. After the treatment, the plates were placed at room temperature for 2 hr to thaw before luminescence images acquisition. For ABA plus NaCl treatment, seedlings were transferred onto a filter paper saturated with 300 mM NaCl in MS solution and sprayed immediately with 100 μM ABA. The plants were then incubated under cool-white light for 4 hr before luciferase imaging. For low temperature plus ABA treatment, seedlings on agar plates were briefly incubated at 0±1° C. for 10 min and then sprayed with 100 μM ABA and incubated in the dark at 0±1° C. for 48 hr before image analysis.
Ten-day-old seedlings on MS agar plates were treated were treated with cold, ABA, NaCl, or PEG as described in the above section. […] Total RNA from control or treated plants was extracted and analyzed as described (Ishitani et al., 1998). […]

[1] = test system: Arabidopsis wild type and los5-1 plants; experiment: Transpirational water loss of detached aerial parts after ABA spray; details: sprayed with 100 μM ABA 3 hr before detaching aerial parts
Procedure: To determine whether los5 mutant plants are deficient in ABA or are insensitive to ABA, wild type and los5-1 plants at the rosette stage were sprayed with 100 μM ABA 3 hr before detaching the aerial parts for water loss measurement.
For water loss measurement, plants at the rosette stage were detached from soil surface and weighed immediately in a plastic weighing boat. The boat with the plants was then placed on laboratory bench (relative humidity ˜30%) and weighed at designated time intervals. There were four replicates for each line. Percent loss of fresh weight was calculated based on the initial weight of the plants.

RD29A-LUC = RD29A-LUC luminescence expression in seedlings, ABA given together with salt or cold stress
Procedure: Arabidopsis thaliana (C24 ecotype) expressing the RD29A-LUC transgene (referred to as the wild type) were obtained by Agrobacterium-mediated transformation (Ishitani et al., 1997). Seeds of wild type RD29A-LUC were mutagenized by ethyl methanesulfonate (Ishitani et al., 1997). M2 were planted on 0.6% agar plates containing full strength Murashige and Skoog salt base (MS salt base; JRH Biosceicnes, Lenex, Kans.) and were germinated and grown at 22±2° C. under continuous white light. One-week-old seedlings were screened for mutants with altered RD29A-LUC (i.e. luminescence) expression in response to low temperature, ABA, or osmotic stress using a thermoelectrically cooled CCD camera. For luminescence imaging, plants were sprayed with 1 mM luciferin in 0.01% Triton X-100 and then kept in the dark for 5 min before imaging. All images were acquired with a 5 min exposure time. The luminescence intensity of each seedling was quantified with the WinView software.
For ABA treatment, 100 μM (±)-cis, trans-abscisic acid in H2O was sprayed uniformly on leaves of seedlings and the plants were incubated at room temperature under cool-white light for 4 hr (for luminescence imaging) or 3 hr (for RNA analysis). For NaCl or PEG treatment, seedlings on MS plates were transferred to filter paper saturated with MS solution supplemented with 300 mM NaCl or 30% of polyethylene glycol (molecular weight 6,000) and incubated for 5 hr. Unless otherwise stated, cold treatment for image analysis and RNA analysis were done by incubating seedlings growing in plates at 0° C. in the dark for 48 hr (for imaging) or 12 hr (for RNA analysis). Because longer treatment at −5 or −10° C. will result in freezing of the agar media, these freezing temperature treatments only lasted for 3 hr. After the treatment, the plates were placed at room temperature for 2 hr to thaw before luminescence images acquisition. For ABA plus NaCl treatment, seedlings were transferred onto a filter paper saturated with 300 mM NaCl in MS solution and sprayed immediately with 100 μM ABA. […]

With `CC1=CC(=O)CC(C)(C)C1(O)/C=C/C(C)=C\C(=O)O` (racemic) [ABA, (±)-cis, trans-abscisic acid] the “transcript level of LOS5” value (LOS5/ABA3 gene) was “increases significantly”, the “rate of water loss” value ([1]; los5-1 plants at rosette stage) was “reduced substantially” and the transpirational water loss ([1]; wild type plants at rosette stage) was “did not significantly affect”. For the same compound, the RD29A-LUC expression (RD29A-LUC; los5 and los6/aba1 seedlings, 100 μM ABA administered simultaneously with 300 mM NaCl, 4 hr) was “restored to the wild type level or higher”, the RD29A-LUC expression (RD29A-LUC; los5 mutant seedlings, 100 μM ABA together with cold, 0° C. for 48 hr) was “failed to restore” and the RD29A-LUC luminescence expression (RD29A-LUC; los6/aba1 seedlings, 100 μM ABA together with cold, 0° C. for 48 hr) was “close to the wild type level”.
